Assay results: US20250214951A1, “3-PHENYLISOXAZOLE DERIVATIVE, AND PHARMACEUTICAL COMPOSITION FOR PREVENTING OR TREATING EYE DISEASE, CONTAINING SAME AS ACTIVE INGREDIENT” (VASTHERA CO., LTD., priority 2022, published 2025)

These compounds were tested on LC3-II (assay: LC3-II production capacity at 10 μM (Table 4)). Settings: Homo sapiens, 12 h.
Format: cell-based
Procedure: ARPE-19 was dispensed into a 6-well plate at a concentration of 1×10^5 cells/well and cultured for 24 hours. Then, cells were treated with example 17 compound of the present invention at concentrations of 10, 25, and 50 μM for 12 hours. Then, a cell lysis buffer containing a protease inhibitor was added to prepare a cell lysate. The LC3-II level was measured by Western immunoblotting using an anti-LC3-II antibody (Cell Signaling Technology, MA, USA). As an internal control, an antibody against β-actin (Cell Signaling Technology) was used and measured by Western immunoblotting in the same manner as above, and is shown in FIG. 6 (upper graph).
The autophagy activation effect of example compounds expected to have autophagy activation ability and low cytotoxicity among the example compounds in Table 2 above in human retinal pigment epithelial cells was evaluated according to Experimental Example 7. That is, the autophagy activation effect through the increase of LC3-II was evaluated in a concentration-dependent manner, and the results are shown in FIGS. 15 and 16.

| Structure (SMILES) | fold induction at 10 µM |
| --- | --- |
| C=CCc1ccc(OC)c(-c2cc(CN3CCNCC3)on2)c1 [Example 29, 3-(5-allyl-methoxyphenyl)-5-(piperazine-1-ylmethyl)isoxazole] | 5.8 |
| COc1ccc(C(F)(F)F)cc1-c1cc(CO)on1 [Example 31, (3-(2-methoxy-5-(trifluoromethyl)phenyl)isoxazole-5-yl)methanol] | 0.8 |
| COc1ccc(C(F)(F)F)cc1-c1cc(C(C)(C)O)on1 [Example 32, 2-(3-(2-methoxy-5-(trifluoromethyl)phenyl)isoxazole-5-yl)propan-2-ol] | 0.9 |
| COc1ccc(C(F)(F)F)cc1-c1cc(CCO)on1 [Example 33, 2-(3-(2-methoxy-5-(trifluoromethyl)phenyl)isoxazole-5-yl)ethan-1-ol] | 1.5 |
| COc1cc(C(F)(F)F)ccc1-c1cc(CO)on1 [Example 35, (3-(2-methoxy-4-(trifluoromethyl)phenyl)isoxazole-5-yl)methanol] | 1.1 |
| COc1ccc(C(F)(F)F)cc1-c1cc(COCC(=O)O)on1 [Example 36, 2-((3-(2-methoxy-5-(trifluoromethyl)phenyl)isoxazole-5-yl)methoxy)acetic acid] | 2.3 |
| COc1ccc(C(F)(F)F)cc1-c1cc(CN2CCN(C)C(=O)C2)on1 [Example 37, 4-((3-(2-methoxy-5-(trifluoromethyl)phenyl)isoxazole-5-yl)methyl)-1-methylpiperazine-2-on] | 2.2 |
| COc1ccc(N2CCOCC2)cc1-c1cc(CO)on1 [Example 38, (3-(2-methoxy-5-morpholinophenyl)isoxazole-5-yl)methanol] | 1.2 |
| C=CCc1ccc(OC)c(-c2cc(C(C)(C)O)on2)c1 [Example 39, 2-(3-(5-allyl-2-methoxyphenyl)isoxazole-5-yl)propan-2-ol] | 0.7 |
| CCCc1ccc(OC)c(-c2cc(C(C)(C)O)on2)c1 [Example 40, 2-(3-(2-methoxy-5-propylphenyl)isoxazole-5-yl)propan-2-ol] | 1.6 |
| C=CCc1ccc(OC(F)(F)F)c(-c2cc(CO)on2)c1 [Example 43, (3-(5-allyl-2-(trifluoromethoxy)phenyl)isooxazole-5-yl)methanol] | 19.7 |
| C=CCc1ccc(-c2cc(CO)on2)c(OC)c1 [Example 44, (3-(4-allyl-2-methoxyphenyl)isoxazole-5-yl)methanol] | 3.8 |
| COc1ccc(C(C)C)cc1-c1cc(CO)on1 [Example 45, (3-(5-isopropyl-2-methoxyphenyl)isoxazole-5-yl)methanol] | 2.5 |
| COc1ccc(C(C)C)cc1-c1cc(CN2CCN(C(=O)OC(C)(C)C)CC2)on1 [Example 46, tert-butyl 4-((3-(5-isopropyl-2-methoxyphenyl)isoxazole-5-yl)methyl)piperazine-1-carboxylate] | 1.5 |
| C=CCc1ccc(-c2cc(CN3CCN(C(=O)OC(C)(C)C)CC3)on2)c(OC)c1 [Example 48, tert-butyl 4-((3-(4-allyl-2-methoxyphenyl)isoxazole-5-yl)methyl)piperazine-1-carboxylate] | > 15 |
| C=CCc1ccc(-c2cc(CN3CCNCC3)on2)c(OC)c1 [Example 49, 3-(4-allyl-2-methoxyphenyl)-5-(piperazine-1-ylmethyl)isoxazole] | 1.1 |
| C=CCc1ccc(OC(F)(F)F)c(-c2cc(CN3CCN(C(=O)OC(C)(C)C)CC3)on2)c1 [Example 50, tert-butyl 4-((3-(5-allyl-2-(trifluoromethoxy)phenyl)isoxazole-5-yl)methyl)piperazine-1-carboxylate] | > 25 |
| C=CCc1ccc(OC(F)(F)F)c(-c2cc(CN3CCNCC3)on2)c1 [Example 51, 3-(5-allyl-2-(trifluoromethoxy)phenyl)-5-(piperazine-1-ylmethyl)isoxazole] | > 15 |
